# Measurements taken from patent US20200207989A1, “FLUORESCENT PROBE FOR ALDH3A1 DETECTION” (The University of Tokyo, priority 2016, published 2020).
# T1: ALDH1A1 (Homo sapiens, UniProt P00352)
# T1 construct: purchased
# T1 sequence (P00352 1-501): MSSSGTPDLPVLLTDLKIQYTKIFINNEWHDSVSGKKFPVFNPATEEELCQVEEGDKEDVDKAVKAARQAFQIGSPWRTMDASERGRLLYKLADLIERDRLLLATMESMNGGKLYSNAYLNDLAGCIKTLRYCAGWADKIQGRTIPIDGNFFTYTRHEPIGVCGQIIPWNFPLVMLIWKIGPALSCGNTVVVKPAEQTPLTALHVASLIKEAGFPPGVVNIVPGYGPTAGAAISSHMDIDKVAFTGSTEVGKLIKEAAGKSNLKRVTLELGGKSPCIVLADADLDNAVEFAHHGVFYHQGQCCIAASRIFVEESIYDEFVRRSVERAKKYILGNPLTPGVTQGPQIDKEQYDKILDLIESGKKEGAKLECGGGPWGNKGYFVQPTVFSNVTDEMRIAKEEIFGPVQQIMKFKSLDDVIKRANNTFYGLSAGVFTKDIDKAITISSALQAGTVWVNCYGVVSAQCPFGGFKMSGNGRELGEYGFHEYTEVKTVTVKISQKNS
# T2: ALDH3A1 (Homo sapiens, UniProt P30838)
# T2 construct: purchased
# T2 sequence (P30838 1-453): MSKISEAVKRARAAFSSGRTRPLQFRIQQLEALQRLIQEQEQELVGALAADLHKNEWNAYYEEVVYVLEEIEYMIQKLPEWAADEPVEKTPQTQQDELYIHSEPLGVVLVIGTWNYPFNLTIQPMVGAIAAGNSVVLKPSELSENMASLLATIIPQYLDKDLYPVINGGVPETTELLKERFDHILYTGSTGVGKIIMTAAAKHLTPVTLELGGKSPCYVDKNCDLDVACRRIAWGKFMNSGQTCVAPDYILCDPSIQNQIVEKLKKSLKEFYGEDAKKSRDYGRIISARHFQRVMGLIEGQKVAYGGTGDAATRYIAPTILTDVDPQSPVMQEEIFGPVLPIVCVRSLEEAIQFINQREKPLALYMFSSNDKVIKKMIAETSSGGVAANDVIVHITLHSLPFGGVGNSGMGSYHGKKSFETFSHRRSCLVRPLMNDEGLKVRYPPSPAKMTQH
# T3: ALDH1A3 (Homo sapiens, UniProt P47895)
# T3 construct: purchased
# T3 sequence (P47895 1-512): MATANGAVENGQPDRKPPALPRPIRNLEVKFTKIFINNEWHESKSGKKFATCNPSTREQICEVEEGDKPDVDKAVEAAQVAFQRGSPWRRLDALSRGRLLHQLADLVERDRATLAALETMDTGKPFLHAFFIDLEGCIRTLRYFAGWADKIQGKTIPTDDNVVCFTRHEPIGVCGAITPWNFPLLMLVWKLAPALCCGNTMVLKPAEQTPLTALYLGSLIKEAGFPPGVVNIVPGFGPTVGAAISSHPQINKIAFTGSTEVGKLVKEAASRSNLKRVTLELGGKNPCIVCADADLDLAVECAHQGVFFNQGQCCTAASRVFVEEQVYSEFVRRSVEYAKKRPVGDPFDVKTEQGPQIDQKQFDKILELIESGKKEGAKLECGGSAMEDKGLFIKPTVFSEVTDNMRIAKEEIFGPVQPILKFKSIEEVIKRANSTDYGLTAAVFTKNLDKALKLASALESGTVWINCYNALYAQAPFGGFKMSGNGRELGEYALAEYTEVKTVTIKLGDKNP
# Legend:
# [1] = target: T1, ALDH1A1; experiment: Reactivity of probes to recombinant ALDH1A1 (UPLC/MS/MS detection of aldehyde and carboxylic acid forms); type: biochemical; conditions: 10-100 nM ALDH, 10-80 μM compound, Tris buffer pH 7.5, 30 minutes at 37° C., ◯/X not defined by a legend
# Description: (§1) Human recombinant ALDH1A1/1A3/3A1 was purchased, and 100 mM of KCL, 2 mM of DTT, 1 mM of NAD(P), 10-100 nM of each ALDH, and 10-80 μM of each compound were mixed in Tris buffer (100 mM, pH 7.5), reacted for 30 minutes at 37° C., an equal amount of acetonitrile added, and the reaction stopped. The reaction solution was analyzed by UPLC/MS/MS (Waters). The UPCL chromatogram was carried out over five minutes at a flow rate of 800 μL/min by a linear gradient from 5% acetonitrile 0.01 M ammonium formate/water to 95% acetonitrile 0.01 M ammonium formate/water. An aldehyde-form and carboxylic acid-form probe were detected by the absorbance at a wavelength of 504 nm, and m/z of the MS spectrum at each peak was confirmed to agree with the expected m/z.
# [2] = target: T2, ALDH3A1; experiment: Reactivity of probes to recombinant ALDH3A1 (UPLC/MS/MS); type: biochemical; conditions: 10-100 nM ALDH, 10-80 μM compound, Tris buffer pH 7.5, 30 minutes at 37° C., ◯/X not defined by a legend
# Description: as §1, with “formate/water.” for “formate/water. An aldehyde-form and carboxylic acid-form probe were detected by the absorbance at a wavelength of 504 nm, and m/z of the MS spectrum at each peak was confirmed to agree with the expected m/z.”
# [3] = tested on: OE21 cell line; experiment: Cell imaging of OE21 cells against CB7 negative control; type: cell-based; conditions: probe 5: 40 μM, 90 minutes at 37° C., CB7 10 μM control
# Description: 40 μM of probe 5 was added to culture medium (RPMI 1640, 10% FBS, 15 mM HEPES, phenol red-free). After culturing for 90 minutes at 37° C., the cells were washed using a chilled medium and examined under a confocal microscope. A sample with a specific ALDH3A1 inhibitor (1-[(4-fluorophenyl)sulfonyl]-2-methyl-1H-benzimidazole, CB7, 10 μM) added served as a negative control. Excitation was provided by a 488 nm laser, and observation was carried out at wavelengths of […] in detection.
# [4] = HPLC (LC/MS) retention time as measure of hydrophilicity / membrane permeability; type: physicochemical; conditions: C18 column; 20% B 2.5 min, 20%-->100% B 5 min, 500 μL/min; neutral conditions; mean±SD of three tests
# Description: In the present invention, it is preferable to use the retention time on an HPLC chromatogram as the measure of hydrophilicity.
# HPLC conditions: taking solvent A to be 0.01 M ammonium formate/water and solvent B to be 80% acetonitrile 0.01 M ammonium formate/water, chromatography is carried out under conditions of 20% solvent B for 2.5 minutes followed by a 5-minute linear gradient of solvent B from 20% to 100% (flow rate 500 μL/min).
# A C18 column (HP 3 μm, inner diameter: 2.1 mm, length: 150 mm, GL Science), for example, can be used suitably as the column.
# The water solubility was verified by LC/MS under neutral conditions to compare the membrane permeability of the five probes produced above and ALDEFLUOR. The reaction was stopped after advancing the reaction to the point that each probe was present as both a carboxylic acid form and an aldehyde form using a suitable isoform and concentration of ALDH, and analysis was conducted by LC/MS (Agilent 1200/6130 quadrupole LC/MS system). A C18 column (HP 3 μm, inner diameter: 2.1 mm, length: 150 mm, GL Science) was used as the column. HPLC chromatograms were carried out by 20% B for 2.5 minutes followed by a five-minute linear gradient (flow rate: 500 μL/min) from 20% to 100% B, taking solvent A to be 0.01 M ammonium formate/water and solvent B to be 80% acetonitrile 0.01 M ammonium formate/water. The probe containing BODIPY was detected by the absorbance at a wavelength of 504 nm and the probe containing TG at a wavelength of 495 nm, and m/z of the MS spectrum at each peak was confirmed to agree with the expected m/z. Three independent tests were run, and the mean±SD was calculated. […] Given that imaging of probe 1 was not successful, there was thought to be a threshold at which the membrane permeability changes rapidly between this 6.741 minutes and 7.098 minutes (band in FIG. 2).
# [5] = target: T2, ALDH3A1; experiment: Kinetic characteristics (Michaelis-Menten Km, Kcat) with ALDH3A1; type: biochemical
# Description: as §1
# (§2) For the reaction, 100 mM of KCL, 2 mM of DTT, 1 mM of NAD(P), and five to six concentrations within the range of 10-100 nM of each ALDH and 0.1-80 μM of each probe were selected, mixed in Tris buffer (100 mM, pH 7.5), and reacted for five minutes at 37° C.; an equal amount of acetonitrile was added, and the reaction was stopped. Detection of the aldehyde-form/carboxylic acid-form probes was carried out using the same method as described above by UPLC/MS/MS. Km and Kcat were calculated by fitting the reaction rate at each probe concentration obtained to the Michaelis-Menten equation. A Kaleida Graph ver. 4.1 (Hulinks, Inc.) was used in fitting.
# The Kcat ratio (Kcat of ALDH3A1/Kcat of ALDH1A1) was calculated for probe 1, probe 3, and probe 5 as an indicator of ALDH1A1/ALDH3A1 specificity because the probe reaction rate at the actual probe use concentration is believed to be close to Vmax since Km is relatively small (Table 5).
# [6] = target: T1, ALDH1A1; experiment: Kinetic characteristics (Michaelis-Menten Km, Kcat) with ALDH1A1; type: biochemical; conditions: five minutes at 37° C., Tris buffer pH 7.5
# Description: as §1, §2
# [7] = target: T3, ALDH1A3; experiment: Reactivity of probes to recombinant ALDH1A3 (UPLC/MS/MS); type: biochemical; conditions: 10-100 nM ALDH, 10-80 μM compound, Tris buffer pH 7.5, 30 minutes at 37° C.; ◯/X not defined by a legend
# Description: as §1, with “formate/water.” for “formate/water. An aldehyde-form and carboxylic acid-form probe were detected by the absorbance at a wavelength of 504 nm, and m/z of the MS spectrum at each peak was confirmed to agree with the expected m/z.”
# [8] = tested on: A549 cells
# Excerpt: An esophageal squamous cell carcinoma cell line (OE21 cell line) which are cells that express a high level of ALDH3A1 was used as the cells.
# [9] = substrate: CCN(CCOCCNC(=O)c1ccc(-c2c3ccc(=O)cc-3oc3cc(O)ccc23)c(C)c1)c1ccc(C=O)cc1; experiment: Kinetic characteristics (Michaelis-Menten Km, Kcat) with ALDH1A1; type: biochemical, Human; conditions: other: five minutes at 37° C., Tris buffer pH 7.5
# Description: as §1, §2
# [10] = five minutes at 37° C., Tris buffer pH 7.5
Reactivity to ALDH1A1 ([1]; listed as compound 2),Reactivity to ALDH1A3 [7],Molecule,Reactivity to ALDH1A1 [1],Reactivity to ALDH1A1 ([1]; listed as compound 3),Reactivity to ALDH3A1 [2],Reactivity to ALDH3A1 ([2]; listed as compound 3),Brightness of cells in imaging compared to negative control (CB7) [3],"Retention Time, Aldehyde form [4]","Retention Time, carboxylate (carboxylic acid form) [4]","Kcat ALDH3A1 [5, 10]","Km [5, 10]",Kcat ratio (Kcat of ALDH3A1/Kcat of ALDH1A1) ([5]; indicator of ALDH1A1/ALDH3A1 specificity),Kcat ALDH1A1 [6],Km [6],Brightness of cells in imaging compared to negative control [8],Km [9],kcat [9]
,,"2-(N-ethyl-N-(4-formylphenyl)amino)ethyl-3-(1,3-dimethyl-4,4-difluoro-4-bora-3a,4a-diaza-s-indacen-5-yl)-propionamide [Probe 3]",◯,reacted with ALDH1A1 and ALDH3A1,◯,reacted with ALDH1A1 and ALDH3A1,no evident difference in brightness could be found in comparison to the negative control,9.153 ± 0.010 min,7.920 ± 0.052 min,0.203 ± 0.0033 s⁻¹,0.87 ± 0.07 µM,2,0.101 ± 0.00333 s⁻¹,0.17 ± 0.03 µM,,,
presented reactivity only with ALDH1A1,presented reactivity only with ALDH1A1,"N-(4-formylphenyl)-3-(1,3-dimethyl-4,4-difluoro-4-bora-3a,4a-diaza-s-indacen-5-yl)-propionamide [Probe 2]",◯,,presented reactivity only with ALDH1A1,,,9.330 ± 0.002 min,7.284 ± 0.047 min,,,,3.4 ± 0.415 s⁻¹,5.76 ± 2.39 µM,no evident difference in brightness was found in comparison to the negative control,,
,,"ALDH1A1 (Homo sapiens) (protein, purchased) MSSSGTPDLPVLLTDLKIQYTKIFINNEWHDSVSGKKFPVFNPATEEELCQVEEGDKEDVDKAVKAARQAFQIGSPWRTMDASERGRLLYKLADLIERDRLLLATMESMNGGKLYSNAYLNDLAGCIKTLRYCAGWADKIQGRTIPIDGNFFTYTRHEPIGVCGQIIPWNFPLVMLIWKIGPALSCGNTVVVKPAEQTPLTALHVASLIKEAGFPPGVVNIVPGYGPTAGAAISSHMDIDKVAFTGSTEVGKLIKEAAGKSNLKRVTLELGGKSPCIVLADADLDNAVEFAHHGVFYHQGQCCIAASRIFVEESIYDEFVRRSVERAKKYILGNPLTPGVTQGPQIDKEQYDKILDLIESGKKEGAKLECGGGPWGNKGYFVQPTVFSNVTDEMRIAKEEIFGPVQQIMKFKSLDDVIKRANNTFYGLSAGVFTKDIDKAITISSALQAGTVWVNCYGVVSAQCPFGGFKMSGNGRELGEYGFHEYTEVKTVTVKISQKNS",,,,,,,,,,,,,,0.26 ± 0.05 µM,0.017 ± 0.00067 s⁻¹
